Patent US12319752B2, “Heparin-binding cationic peptide self-assembling peptide amphiphiles useful against drug-resistant bacteria” (priority 2016, dated 2025)
Residues, ends and D or L forms follow the SMILES beside them. *: point of attachment. Palmitoyl = CCCCCCCCCCCCCCCC(=O)*

Columns and labels:
MRSA = experiment: Bacterial membrane disruption by TEM of ultrathin sections; type: cell-based, methicillin-resistant S. aureus (MRSA); settings: 4 h
Method: TEM was used to reveal the damage in bacterial cell envelopes caused by ACA-PA treatment. Drug-resistant bacterial strains (MRSA and MDR E. coli) were exposed to ACA-PA at concentrations below (40 μM) and above (80 μM) the CMC, and ultrathin sections of the bacterial cultures were visualized by TEM.
The ACA-PA at a concentration lower than CMC seemed to only influenced the outer bacteria membrane, but were inadequate to disrupt the inner bacteria membranes.
Bacterial membrane disruption was observed from the ultrathin sectioned sample using TEM. […] After treatment with 80 μM ACA nanorods, bacterial cell membranes were severely damaged with complete cytoplasm leakage. […] On the damaged membranes, blisters appeared to originate from the pores. This explains the reason for the different antibacterial activity of ACA-PA on Gram-negative bacteria compared to the concentration-dependent toxicity on Gram-positive bacteria. The cell envelope of Gram-positive has a cytoplasmic membrane surrounded by a thick peptidoglycan layer with lipoteichoic acid. The antibacterial ACA-PA could penetrate the Gram-positive bacterial membrane by charge and hydrophobicity, although the PA were in a dispersed, non-assembled form. However, such dispersed PA were not able to penetrate the outer membrane of Gram-negative bacteria. […]

MDR E. coli = experiment: Bacterial growth inhibition (growth curves, OD562, 20 h); type: cell-based, multidrug-resistant E. coli (MDR E. coli, ATCC #BAA-2471)
Method: (§1) Gram-positive (S. aureus and MRSA) and Gram-negative (E. coli and MDR E. coli) bacteria were incubated with peptide concentrations ranging from 20 to 100 μM, and time-lapsed bacterial growth was monitored for 20 hours by determining the optical density at 562 nm (O.D. 562 nm). […] At the highest concentration tested (100 μM), the time to exponential growth phase of S. aurues was delayed by about 18 h (FIG. 5B), and was prolonged by almost 13 h for MRSA (FIG. 5A), while bacteria incubated without ACA-PA entered the exponential growth phase within 4 h. Gram-positive bacteria were also susceptible to the ACA-PA even below their CMC.
(§2) The MIC values of ACA-PA towards drug-resistant bacteria were determined after 24 h of incubation (Table 2).
(§3) This assay was performed to investigate the inhibitory effects of each peptide against Gram-positive Staphylococcus aureus (S. aureus, ATCC #25923) and methicillin-resistant S. aureus (MRSA, ATCC #43300), as well as Gram-negative Escherichia coli (E. coli, ATCC #25922), and multidrug-resistant E. coli (MDR E. coli, ATCC #BAA-2471). In all experiments, solutions of each peptide at the concentrations from 20 μM to 100 μM in 3% Tryptic Soy Broth (TSB) media were freshly prepared. A single colony of bacteria was isolated from a stock agar plate and cultured overnight in 4 mL of 3% TSB on a shaking incubator set at 200 rpm and 37° C. The bacteria culture was adjusted to an optical density at 562 nm (OD562) to about 0.52 (10^9 cells/mL), and the resulting bacteria suspension was subsequently diluted to about 10^6 colony forming units (CFU) per mL in each sample. The control samples were bacteria incubated in TSB media without peptides. The bacteria were incubated inside a spectrophotometer (Spectra-Max Paradigm, Molecular Devices, Sunnyvale, CA) at 37° C. under static conditions for 20 h, and the bacterial growth curves were measured in terms of turbidity at OD562 every 2 minutes. The normalized OD562 values of samples were calculated by subtracting the […].

E. coli = experiment: as above; type: cell-based, Escherichia coli (ATCC #25922)
Method: as §1, §2, §3

[1] = concentrations higher than the CMC (60 μM to 100 μM)
[2] = concentrations lower than the CMC

## CCCCCCCCCCCCCCCC(=O)N[C@H](C(=O)N[C@H](C(=O)N[C@H](C(=O)N[C@H](C(=O)N[C@@H](CCCCN)C(=O)N[C@@H](CCCCN)C(=O)N[C@@H](CCCCN)C(=O)N[C@@H](CCCCN)C(=O)NCC(=O)N[C@@H](C)C(=O)N[C@@H](CCCCN)C(=O)N[C@@H](CCCCN)C(=O)N[C@@H](C)C(=O)N[C@@H](CCCNC(=N)N)C(=O)N[C@@H](C)C(=O)N[C@@H](C)C(=O)N[C@@H](CCCCN)C(=O)N[C@@H](CCCCN)C(=O)N[C@@H](C)C(=O)N[C@@H](CCCNC(=N)N)C(=O)N[C@@H](C)C(=O)O)C(C)C)C(C)C)C(C)C)C(C)C [ACA-PA, C16-V4K4G(AKKARA)2 (SEQ ID NO: 7)] (Palmitoyl-VVVVKKKKGAKKARAAKKARA-OH; N-terminus and C-terminus assumed)
MRSA; 40 μM
  bacterial membrane disruption (TEM): partially damaged
MRSA; 80 μM
  bacterial membrane disruption (TEM): localized disruption on the cell membrane and complete leakage of the cytoplasm
MDR E. coli; 20 to 100 μM, 20 h
  bacterial growth inhibition: remarkably inhibited the proliferation
MDR E. coli; [1]
  bacterial proliferation: significantly suppressed
MDR E. coli; [2]
  bacterial growth inhibition: did not significantly inhibit bacterial growth
MDR E. coli; over 80 μM
  bacterial growth: no bacteria growth was observed
E. coli; 20 to 100 μM, 20 h
  bacterial growth inhibition: remarkably inhibited the proliferation
E. coli; [1]
  bacterial proliferation: significantly suppressed
E. coli; [2]
  bacterial growth inhibition: did not significantly inhibit bacterial growth
